From ChEMBL document CHEMBL5649169 (ChemMedChem, 2018)

Legend:
[1] = target: Acetyl-CoA carboxylase 1 (Homo sapiens) (UniProt Q13085)
[2] = target: Large ribosomal subunit protein uL1 (Homo sapiens) (UniProt P62906)
[3] = target: Interleukin-1 receptor-associated kinase 1 (Homo sapiens) (UniProt P51617)
[4] = target: Serine/threonine-protein kinase 3 (Homo sapiens) (UniProt Q13188)
[5] = target: Exportin-2 (Homo sapiens) (UniProt P55060)
[6] = target: ADP-sugar pyrophosphatase (Homo sapiens) (UniProt Q9UKK9)
[7] = target: Ephrin type-B receptor 2 (Homo sapiens) (UniProt P29323)
[8] = target: Alpha-actinin-4 (Homo sapiens) (UniProt O43707)
[9] = target: Alpha-internexin (Homo sapiens) (UniProt Q16352)
[10] = target: Small ribosomal subunit protein uS10 (Homo sapiens) (UniProt P60866)
[11] = target: Pyruvate dehydrogenase E1 component subunit alpha, somatic form, mitochondrial (Homo sapiens) (UniProt P08559)
[12] = target: Putative RNA-binding protein Luc7-like 2 (Homo sapiens) (UniProt Q9Y383)
[13] = target: GPI-anchor transamidase component PIGS (Homo sapiens) (UniProt Q96S52)
[14] = target: Transcriptional repressor p66-alpha (Homo sapiens) (UniProt Q86YP4)
[15] = target: TGF-beta receptor type-2 (Homo sapiens) (UniProt P37173)
[16] = target: Double-stranded RNA-binding protein Staufen homolog 1 (Homo sapiens) (UniProt O95793)
[17] = target: Acidic leucine-rich nuclear phosphoprotein 32 family member B (Homo sapiens) (UniProt Q92688)
[18] = target: Inorganic pyrophosphatase (Homo sapiens) (UniProt Q15181)
[19] = target: Small ribosomal subunit protein eS7 (Homo sapiens) (UniProt P62081)
[20] = target: Inner centromere protein (Homo sapiens) (UniProt Q9NQS7)
[21] = target: E3 ubiquitin/ISG15 ligase TRIM25 (Homo sapiens) (UniProt Q14258)
[22] = target: Aspartate--tRNA ligase, cytoplasmic (Homo sapiens) (UniProt P14868)
[23] = target: Misshapen-like kinase 1 (Homo sapiens) (UniProt Q8N4C8)
[24] = target: Large neutral amino acids transporter small subunit 1 (Homo sapiens) (UniProt Q01650)
[25] = target: Dual specificity tyrosine-phosphorylation-regulated kinase 1A (Homo sapiens) (UniProt Q13627)
[26] = target: D-3-phosphoglycerate dehydrogenase (Homo sapiens) (UniProt O43175)
[27] = target: Phosphorylase kinase beta subunit (Homo sapiens) (UniProt Q93100)
[28] = target: Tyrosine-protein kinase ABL2 (Homo sapiens) (UniProt P42684)
Homo sapiens [29] = organism: Homo sapiens
[30] = target: Neuronal migration protein doublecortin (Homo sapiens) (UniProt O43602)
[31] = target: Prelamin-A/C (Homo sapiens) (UniProt P02545)
[32] = target: High affinity nerve growth factor receptor (Homo sapiens) (UniProt P04629)
[33] = target: Polyadenylate-binding protein 1 (Homo sapiens) (UniProt P11940)
[34] = target: ATP synthase peripheral stalk subunit b, mitochondrial (Homo sapiens) (UniProt P24539)
[35] = target: CDP-diacylglycerol--inositol 3-phosphatidyltransferase (Homo sapiens) (UniProt O14735)
[36] = target: Coatomer subunit beta' (Homo sapiens) (UniProt P35606)
[37] = target: Heat shock 70 kDa protein 1A/1B (Homo sapiens) (UniProt P0DMV8+P0DMV9)
Dynamin-2 (Homo sapiens) = Dynamin-2 (Homo sapiens) (UniProt P50570)
[38] = target: Actin-related protein 2/3 complex subunit 4 (Homo sapiens) (UniProt P59998)
[39] = target: Adenosylhomocysteinase (Homo sapiens) (UniProt P23526)
Homo sapiens [40] = organism: Homo sapiens; remark: listed apart in the source
[41] = target: DNA topoisomerase 2-alpha (Homo sapiens) (UniProt P11388)
[42] = target: Constitutive coactivator of PPAR-gamma-like protein 1 (Homo sapiens) (UniProt Q9NZB2)
[43] = target: Ephrin type-B receptor 4 (Homo sapiens) (UniProt P54760)
[44] = target: RNA-binding protein FUS (Homo sapiens) (UniProt P35637)
[45] = target: ATP synthase F(1) complex subunit gamma, mitochondrial (Homo sapiens) (UniProt P36542)
[46] = target: rRNA 2'-O-methyltransferase fibrillarin (Homo sapiens) (UniProt P22087)
Further: assay method not described here.

Sequence of CDP-diacylglycerol--inositol 3-phosphatidyltransferase (Homo sapiens) (O14735 whole entry): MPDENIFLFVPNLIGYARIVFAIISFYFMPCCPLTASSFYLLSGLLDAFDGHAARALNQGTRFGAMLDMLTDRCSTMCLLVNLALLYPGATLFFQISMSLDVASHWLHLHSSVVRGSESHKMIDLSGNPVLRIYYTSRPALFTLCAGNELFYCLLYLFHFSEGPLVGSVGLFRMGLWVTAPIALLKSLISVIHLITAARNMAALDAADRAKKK
Sequence of Prelamin-A/C (Homo sapiens) (P02545 whole entry): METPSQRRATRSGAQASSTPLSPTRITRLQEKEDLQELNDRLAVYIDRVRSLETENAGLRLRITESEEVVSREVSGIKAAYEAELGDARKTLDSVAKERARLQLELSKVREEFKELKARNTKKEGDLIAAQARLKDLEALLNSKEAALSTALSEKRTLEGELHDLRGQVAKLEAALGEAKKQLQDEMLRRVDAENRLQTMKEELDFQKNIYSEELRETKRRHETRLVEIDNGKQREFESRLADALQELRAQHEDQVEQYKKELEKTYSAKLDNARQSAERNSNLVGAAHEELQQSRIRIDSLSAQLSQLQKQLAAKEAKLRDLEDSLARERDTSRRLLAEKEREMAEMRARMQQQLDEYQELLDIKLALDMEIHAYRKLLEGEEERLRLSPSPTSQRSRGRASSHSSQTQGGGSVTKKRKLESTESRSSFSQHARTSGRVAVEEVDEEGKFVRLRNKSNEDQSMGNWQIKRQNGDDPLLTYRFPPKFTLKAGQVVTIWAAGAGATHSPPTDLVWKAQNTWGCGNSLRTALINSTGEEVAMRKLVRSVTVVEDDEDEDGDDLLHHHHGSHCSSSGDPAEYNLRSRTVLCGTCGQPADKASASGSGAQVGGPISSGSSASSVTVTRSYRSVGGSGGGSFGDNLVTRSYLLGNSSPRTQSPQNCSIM
Sequence of Coatomer subunit beta' (Homo sapiens) (P35606 whole entry): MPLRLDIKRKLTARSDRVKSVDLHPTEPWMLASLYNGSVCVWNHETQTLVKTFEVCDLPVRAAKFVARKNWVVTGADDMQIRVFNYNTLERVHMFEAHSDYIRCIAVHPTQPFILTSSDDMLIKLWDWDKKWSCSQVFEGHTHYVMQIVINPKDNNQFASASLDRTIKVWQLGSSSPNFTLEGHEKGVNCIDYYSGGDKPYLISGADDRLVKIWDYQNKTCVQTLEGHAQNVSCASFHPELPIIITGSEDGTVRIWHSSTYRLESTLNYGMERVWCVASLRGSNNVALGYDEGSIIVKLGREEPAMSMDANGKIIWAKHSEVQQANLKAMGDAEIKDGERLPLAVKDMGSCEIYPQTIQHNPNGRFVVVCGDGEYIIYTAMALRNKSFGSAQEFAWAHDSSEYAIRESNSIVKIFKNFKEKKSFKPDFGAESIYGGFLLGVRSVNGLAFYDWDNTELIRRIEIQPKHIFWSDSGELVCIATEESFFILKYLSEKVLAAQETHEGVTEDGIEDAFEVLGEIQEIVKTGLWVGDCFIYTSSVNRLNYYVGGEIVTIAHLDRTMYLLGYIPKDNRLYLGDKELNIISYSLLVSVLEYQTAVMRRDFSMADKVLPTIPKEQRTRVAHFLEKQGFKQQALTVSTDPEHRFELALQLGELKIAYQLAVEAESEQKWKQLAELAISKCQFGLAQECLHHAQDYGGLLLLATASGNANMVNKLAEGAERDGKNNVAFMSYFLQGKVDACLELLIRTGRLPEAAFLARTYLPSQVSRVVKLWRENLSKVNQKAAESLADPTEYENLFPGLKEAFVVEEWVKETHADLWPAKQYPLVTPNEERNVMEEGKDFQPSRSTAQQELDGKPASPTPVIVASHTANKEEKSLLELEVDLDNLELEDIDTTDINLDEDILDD
Sequence of High affinity nerve growth factor receptor (Homo sapiens) (P04629 33-796 limits assumed): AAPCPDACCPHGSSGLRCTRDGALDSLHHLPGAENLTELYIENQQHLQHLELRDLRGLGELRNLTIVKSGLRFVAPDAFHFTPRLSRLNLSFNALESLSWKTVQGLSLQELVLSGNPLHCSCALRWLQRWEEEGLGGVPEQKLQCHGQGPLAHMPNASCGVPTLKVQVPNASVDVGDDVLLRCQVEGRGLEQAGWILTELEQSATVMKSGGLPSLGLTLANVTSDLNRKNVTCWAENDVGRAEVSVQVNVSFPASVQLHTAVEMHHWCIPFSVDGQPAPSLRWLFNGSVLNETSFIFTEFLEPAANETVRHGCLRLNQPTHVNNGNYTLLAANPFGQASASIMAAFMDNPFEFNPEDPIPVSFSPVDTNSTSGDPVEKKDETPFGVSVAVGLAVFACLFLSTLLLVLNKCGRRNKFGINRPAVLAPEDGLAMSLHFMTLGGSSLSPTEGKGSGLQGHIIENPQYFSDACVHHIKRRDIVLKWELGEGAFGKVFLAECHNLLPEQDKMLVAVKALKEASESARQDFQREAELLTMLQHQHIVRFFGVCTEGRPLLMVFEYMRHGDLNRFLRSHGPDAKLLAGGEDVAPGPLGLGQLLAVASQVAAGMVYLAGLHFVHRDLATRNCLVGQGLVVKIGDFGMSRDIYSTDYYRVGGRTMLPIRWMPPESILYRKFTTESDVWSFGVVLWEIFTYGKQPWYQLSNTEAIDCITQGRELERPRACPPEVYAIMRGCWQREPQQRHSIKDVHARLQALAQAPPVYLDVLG
Sequence of Pyruvate dehydrogenase E1 component subunit alpha, somatic form, mitochondrial (Homo sapiens) (P08559 whole entry): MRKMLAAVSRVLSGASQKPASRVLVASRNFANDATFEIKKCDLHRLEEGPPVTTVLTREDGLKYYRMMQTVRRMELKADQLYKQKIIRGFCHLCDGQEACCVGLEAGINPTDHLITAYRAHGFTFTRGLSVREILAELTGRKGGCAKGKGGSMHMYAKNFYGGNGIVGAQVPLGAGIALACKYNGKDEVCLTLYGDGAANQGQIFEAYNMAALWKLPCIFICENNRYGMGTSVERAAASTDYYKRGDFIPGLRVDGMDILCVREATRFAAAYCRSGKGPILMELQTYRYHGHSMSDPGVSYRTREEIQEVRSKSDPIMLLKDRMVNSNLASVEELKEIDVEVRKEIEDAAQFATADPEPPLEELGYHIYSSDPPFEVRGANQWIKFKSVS
Sequence of Phosphorylase kinase beta subunit (Homo sapiens) (Q93100 whole entry): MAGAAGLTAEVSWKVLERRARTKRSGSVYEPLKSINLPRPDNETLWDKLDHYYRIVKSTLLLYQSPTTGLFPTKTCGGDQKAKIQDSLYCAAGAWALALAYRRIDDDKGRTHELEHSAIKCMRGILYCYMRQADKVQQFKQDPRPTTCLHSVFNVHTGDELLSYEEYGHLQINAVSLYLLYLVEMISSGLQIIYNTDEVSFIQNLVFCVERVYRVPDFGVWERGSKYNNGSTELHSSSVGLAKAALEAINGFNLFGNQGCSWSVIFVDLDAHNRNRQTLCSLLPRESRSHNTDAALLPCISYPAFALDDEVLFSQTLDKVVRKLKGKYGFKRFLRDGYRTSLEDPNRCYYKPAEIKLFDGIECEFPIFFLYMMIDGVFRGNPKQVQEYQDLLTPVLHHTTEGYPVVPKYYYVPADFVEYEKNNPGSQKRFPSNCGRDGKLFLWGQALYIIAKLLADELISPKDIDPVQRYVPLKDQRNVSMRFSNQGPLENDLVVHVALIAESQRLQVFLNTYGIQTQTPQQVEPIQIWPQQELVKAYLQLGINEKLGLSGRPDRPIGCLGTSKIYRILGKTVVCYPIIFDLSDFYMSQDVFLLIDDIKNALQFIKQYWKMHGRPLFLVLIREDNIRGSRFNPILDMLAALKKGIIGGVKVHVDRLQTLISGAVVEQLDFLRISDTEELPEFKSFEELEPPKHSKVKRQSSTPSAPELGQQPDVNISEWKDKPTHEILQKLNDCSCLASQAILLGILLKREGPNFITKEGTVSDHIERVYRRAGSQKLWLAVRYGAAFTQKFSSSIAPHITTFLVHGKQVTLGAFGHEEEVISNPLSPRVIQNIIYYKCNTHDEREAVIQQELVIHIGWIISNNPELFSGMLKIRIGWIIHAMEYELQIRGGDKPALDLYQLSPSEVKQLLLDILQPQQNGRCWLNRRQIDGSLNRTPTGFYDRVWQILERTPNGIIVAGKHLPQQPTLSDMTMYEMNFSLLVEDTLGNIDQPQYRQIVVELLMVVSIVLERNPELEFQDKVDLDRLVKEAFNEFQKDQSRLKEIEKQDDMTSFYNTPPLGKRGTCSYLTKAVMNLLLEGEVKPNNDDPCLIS
Sequence of D-3-phosphoglycerate dehydrogenase (Homo sapiens) (O43175 whole entry): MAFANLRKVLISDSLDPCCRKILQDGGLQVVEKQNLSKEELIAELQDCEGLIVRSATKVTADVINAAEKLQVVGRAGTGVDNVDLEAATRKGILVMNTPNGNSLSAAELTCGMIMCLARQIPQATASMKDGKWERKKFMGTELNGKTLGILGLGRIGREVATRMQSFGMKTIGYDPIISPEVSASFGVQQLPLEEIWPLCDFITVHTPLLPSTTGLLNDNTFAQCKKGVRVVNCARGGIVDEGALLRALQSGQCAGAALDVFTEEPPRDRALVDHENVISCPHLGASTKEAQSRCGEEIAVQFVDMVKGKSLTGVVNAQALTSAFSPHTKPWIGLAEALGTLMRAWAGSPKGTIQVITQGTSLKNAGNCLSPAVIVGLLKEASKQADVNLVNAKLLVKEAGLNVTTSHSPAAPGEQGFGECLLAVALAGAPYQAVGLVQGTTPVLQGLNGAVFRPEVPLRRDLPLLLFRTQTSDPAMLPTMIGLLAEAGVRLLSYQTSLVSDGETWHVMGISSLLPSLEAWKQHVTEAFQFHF
Sequence of ATP synthase F(1) complex subunit gamma, mitochondrial (Homo sapiens) (P36542 whole entry, one chain of several): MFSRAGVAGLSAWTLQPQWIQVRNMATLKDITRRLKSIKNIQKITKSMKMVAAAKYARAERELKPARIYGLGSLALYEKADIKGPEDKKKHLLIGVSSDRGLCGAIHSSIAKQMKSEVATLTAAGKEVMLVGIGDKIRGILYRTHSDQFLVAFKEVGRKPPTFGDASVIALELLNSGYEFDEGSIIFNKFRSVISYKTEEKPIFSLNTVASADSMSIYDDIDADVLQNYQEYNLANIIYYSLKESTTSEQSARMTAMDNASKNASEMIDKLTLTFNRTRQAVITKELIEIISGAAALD

Cc1ccc(C(=O)Nc2cccc(C(F)(F)F)c2)cc1Nc1nc(-c2cccnc2)nc2c1cnn2C
ED50 [1]: 16.4 µM | ED50 [2]: 0.577 µM | ED50 [3]: 14.6 µM | ED50 [4]: 14.2 µM | ED50 [5]: 1.94 µM | ED50 [6]: 3.76 µM | ED50 [7]: 2.94 µM | ED50 [8]: 4.01 µM | ED50 [9]: 0.306 µM | ED50 [10]: 0.371 µM | ED50 [11]: 0.101 µM | ED50 [12]: 1.77 µM | ED50 [13]: 0.0298 µM | ED50 [14]: 3.46 µM | ED50 [15]: 35.5 µM | ED50 [16]: 2.27 µM | ED50 [17]: 5.15 µM | ED50 [18]: 8.44 µM | ED50 [19]: 2.24 µM | ED50 [20]: 3.42 µM | ED50 [21]: 401 µM | ED50 [22]: 0.0564 µM | ED50 [23]: 6.35 µM | ED50 [24]: 2.22 µM | ED50 [25]: 0.102 µM | ED50 [26]: 0.00945 µM | ED50 [27]: 12.8 µM | ED50 [28]: 1.06 µM | ED50 (Homo sapiens [29]): 4.25 µM | ED50 [30]: 0.536 µM | ED50 [31]: 5.41 µM | ED50 [32]: 0.0169 µM | ED50 [33]: 3.36 µM | ED50 [34]: 11.5 µM | ED50 [35]: 0.000993 µM | ED50 [36]: 0.0171 µM | ED50 [37]: 0.181 µM | ED50 (Dynamin-2 (Homo sapiens)): 21.9 µM | ED50 [38]: 18.9 µM | ED50 [39]: 4.94 µM | ED50 (Homo sapiens [40]): 2.31 µM | ED50 [41]: 0.0563 µM | ED50 [42]: 4.66 µM | ED50 [43]: 1.4 µM | ED50 [44]: 0.0175 µM | ED50 [45]: 3.13 µM | ED50 [46]: 5.44 µM

Cc1ccc(C(=O)Nc2cccc(C(F)(F)F)c2)cc1Nc1nc(-c2cccnc2)nc2nn(C)cc12
ED50 [1]: 0.0486 µM | ED50 [2]: 8.92 µM | ED50 [3]: 0.0479 µM | ED50 [4]: 9.32 µM | ED50 [5]: 0.487 µM | ED50 [6]: 7.98 µM | ED50 [7]: 6.16 µM | ED50 [8]: 0.12 µM | ED50 [9]: 1.7 µM | ED50 [10]: 3.63 µM | ED50 [11]: 0.492 µM | ED50 [12]: 4.27 µM | ED50 [13]: 0.255 µM | ED50 [14]: 0.041 µM | ED50 [15]: 0.00886 µM | ED50 [16]: 0.0134 µM | ED50 [17]: 10.1 µM | ED50 [18]: 1.31 µM | ED50 [19]: 6.99 µM | ED50 [20]: 0.229 µM | ED50 [21]: 0.0528 µM | ED50 [22]: 6.72 µM | ED50 [23]: 36.4 µM | ED50 [24]: 1.19 µM | ED50 [25]: 12.5 µM | ED50 [26]: 15 µM | ED50 [27]: 0.384 µM | ED50 [28]: 2.04 µM | ED50 (Homo sapiens [29]): 0.0418 µM | ED50 [30]: 9.4 µM | ED50 [31]: 2.4 µM | ED50 [32]: 0.773 µM | ED50 [33]: 10.7 µM | ED50 [34]: 0.0113 µM | ED50 [35]: 0.0581 µM | ED50 [36]: 0.291 µM | ED50 [37]: 1.61 µM | ED50 (Dynamin-2 (Homo sapiens)): 0.471 µM | ED50 [38]: 15.8 µM | ED50 [39]: 0.0533 µM | ED50 (Homo sapiens [40]): 0.716 µM | ED50 [41]: 0.0585 µM | ED50 [42]: 0.00365 µM | ED50 [43]: 2.25 µM | ED50 [44]: 0.0366 µM | ED50 [45]: 2.43 µM | ED50 [46]: 0.0214 µM
